In ChEMBL document CHEMBL3774345, “Synthesis of new diarylamides with pyrimidinyl pyridine scaffold and evaluation of their anti-proliferative effect on cancer cell lines” (Bioorg Med Chem Lett, 2016):

Assays:
[1] = Cytotoxicity against human RPMI8226 cells assessed as cell growth at 10^-6 M after 24 hrs by SRB assay; type: functional; details: RPMI-8226, 24 h, read-out: Activity
[2] = Cytotoxicity against human UO31 cells after 24 hrs by SRB assay; type: functional, cell-based; details: UO-31, 24 h
SK-MEL-5 = test: Cytotoxicity against human SK-MEL-5 cells assessed as cell growth at 10^-7 M after 24 hrs by SRB assay; type: functional; details: SK-MEL-5, 24 h, read-out: Activity
[3] = Cytotoxicity against human HCT116 cells assessed as cell growth at 10^-8 M after 24 hrs by SRB assay; type: functional; details: HCT-116, 24 h, read-out: Activity
T47D = test: Cytotoxicity against human T47D cells assessed as cell growth at 10^-8 M after 24 hrs by SRB assay; type: functional; details: read-out: Activity
[4] = Cytotoxicity against human OVCAR8 cells assessed as cell growth at 10^-7 M after 24 hrs by SRB assay; type: functional; details: OVCAR-8, 24 h, read-out: Activity
A549 [5] = test: Cytotoxicity against human A549 cells assessed as cell growth at 10^-7 M after 24 hrs by SRB assay; type: functional; details: A549, 24 h, read-out: Activity
CCRF-CEM = test: Cytotoxicity against human CCRF-CEM cells after 24 hrs by SRB assay; type: functional
[6] = Cytotoxicity against human HOP92 cells assessed as cell growth at 10^-7 M after 24 hrs by SRB assay; type: functional; details: HOP-92, 24 h, read-out: Activity
[7] = Cytotoxicity against human OVCAR4 cells assessed as cell growth at 10^-6 M after 24 hrs by SRB assay; type: functional; details: OVCAR-4, 24 h, read-out: Activity
SN12C = test: Cytotoxicity against human SN12C cells assessed as cell growth at 10^-4 M after 24 hrs by SRB assay; type: functional; details: read-out: Activity
SK-MEL-28 = test: Cytotoxicity against human SK-MEL-28 cells assessed as cell growth at 10^-8 M after 24 hrs by SRB assay; type: functional; details: SK-MEL-28, 24 h, read-out: Activity
SR [8] = test: Cytotoxicity against human SR cells assessed as cell growth at 10^-7 M after 24 hrs by SRB assay; type: functional; details: read-out: Activity
NCI-H23 = test: Cytotoxicity against human NCI-H23 cells assessed as cell growth at 10^-6 M after 24 hrs by SRB assay; type: functional; details: NCI-H23, 24 h, read-out: Activity
[9] = Cytotoxicity against human SF295 cells assessed as cell growth at 10^-4 M after 24 hrs by SRB assay; type: functional; details: SF-295, 24 h, read-out: Activity
[10] = Cytotoxicity against human Caki1 cells assessed as cell growth at 10^-7 M after 24 hrs by SRB assay; type: functional; details: CAKI-1, 24 h, read-out: Activity
HT-29 [11] = test: Cytotoxicity against human HT-29 cells after 24 hrs by SRB assay; type: functional; details: HT-29, 24 h
MCF7 = test: Cytotoxicity against human MCF7 cells assessed as cell growth at 10^-7 M after 24 hrs by SRB assay; type: functional; details: MCF7, 24 h, read-out: Activity
786-0 = test: Cytotoxicity against human 786-0 cells assessed as cell growth at 10^-7 M after 24 hrs by SRB assay; type: functional; details: 786-0, 24 h, read-out: Activity
[12] = Cytotoxicity against human BT549 cells assessed as cell growth at 10^-4 M after 24 hrs by SRB assay; type: functional; details: BT-549, 24 h, read-out: Activity
A549 [13] = test: Cytotoxicity against human A549 cells assessed as cell growth at 10^-4 M after 24 hrs by SRB assay; type: functional; details: A549, 24 h, read-out: Activity
[14] = Cytotoxicity against human HOP62 cells assessed as cell growth at 10^-7 M after 24 hrs by SRB assay; type: functional; details: HOP-62, 24 h, read-out: Activity
[15] = Cytotoxicity against human NCI-ADR-RES cells assessed as cell growth at 10^-6 M after 24 hrs by SRB assay; type: functional; details: read-out: Activity
KM12 = test: Cytotoxicity against human KM12 cells assessed as cell growth at 10^-7 M after 24 hrs by SRB assay; type: functional; details: KM12, 24 h, read-out: Activity
[16] = Cytotoxicity against human HCC2998 cells assessed as cell growth at 10^-8 M after 24 hrs by SRB assay; type: functional; details: HCC 2998, 24 h, read-out: Activity
[17] = Cytotoxicity against human PC3 cells after 24 hrs by SRB assay; type: functional; details: PC-3, 24 h
HT-29 [18] = test: Cytotoxicity against human HT-29 cells assessed as cell growth at 10^-7 M after 24 hrs by SRB assay; type: functional; details: HT-29, 24 h, read-out: Activity
[19] = Cytotoxicity against human COLO205 cells assessed as cell growth at 10^-7 M after 24 hrs by SRB assay; type: functional; details: COLO 205, 24 h, read-out: Activity
[20] = Cytotoxicity against human UACC257 cells assessed as cell growth at 10^-8 M after 24 hrs by SRB assay; type: functional; details: UACC-257, 24 h, read-out: Activity
[21] = Cytotoxicity against human UACC62 cells assessed as cell growth at 10^-6 M after 24 hrs by SRB assay; type: functional; details: UACC-62, 24 h, read-out: Activity
EKVX = test: Cytotoxicity against human EKVX cells assessed as cell growth at 10^-8 M after 24 hrs by SRB assay; type: functional; details: read-out: Activity
[22] = Cytotoxicity against human TK10 cells assessed as cell growth at 10^-6 M after 24 hrs by SRB assay; type: functional; details: TK-10, 24 h, read-out: Activity
[23] = Cytotoxicity against human HCT116 cells assessed as cell growth at 10^-4 M after 24 hrs by SRB assay; type: functional; details: HCT-116, 24 h, read-out: Activity
M14 = test: Cytotoxicity against human M14 cells assessed as cell growth at 10^-8 M after 24 hrs by SRB assay; type: functional; details: M14, 24 h, read-out: Activity
[24] = Cytotoxicity against human IGROV1 cells assessed as cell growth at 10^-4 M after 24 hrs by SRB assay; type: functional; details: IGROV-1, 24 h, read-out: Activity
SR [25] = test: Cytotoxicity against human SR cells after 24 hrs by SRB assay; type: functional
[26] = read-out: LC50 (the source's name)
[27] = read-out: pLC50 (the source's name) (converted)

Compound: O=C(Nc1cc(-c2cccnc2)nc(NCCCN2CCOCC2)n1)c1cc(Br)cc(C(F)(F)F)c1
- growth at 1 µM [1]: 101%
- IC50 [2]: 1.4 µM
- GI50 ([2]; read-out: GI50): 1.4 µM
- CC50 [2, 26]: 8.19 µM
- TGI ([2]; read-out: TGI): 3.39 µM
- GI50 ([2]; read-out: pGI50 (converted)): 1.41 µM
- CC50 [2, 27]: 8.13 µM
- TGI ([2]; read-out: pTGI (converted)): 3.39 µM
- growth at 0.1 µM (SK-MEL-5): 95%
- growth at 0.01 µM [3]: 102%
- growth at 0.01 µM (T47D): 91%
- growth at 0.1 µM [4]: 101%
- growth at 0.1 µM (A549 [5]): 109%
- GI50 (CCRF-CEM; read-out: GI50): 3.54 µM
- CC50 (CCRF-CEM; [26]): 93.4 µM
- TGI (CCRF-CEM; read-out: TGI): 12.9 µM
- GI50 (CCRF-CEM; read-out: pGI50 (converted)): 3.55 µM
- CC50 (CCRF-CEM; [27]): 93.3 µM
- TGI (CCRF-CEM; read-out: pTGI (converted)): 12.9 µM
- growth at 0.1 µM [6]: 80%
- growth at 1 µM [7]: 84%
- growth at 100 µM (SN12C): -85%
- growth at 0.01 µM (SK-MEL-28): 92%
- growth at 0.1 µM (SR [8]): 106%
- growth at 1 µM (NCI-H23): 89%
- growth at 100 µM [9]: -92%
- growth at 0.1 µM [10]: 90%
- GI50 (HT-29 [11]; read-out: GI50): 2.12 µM
- CC50 (HT-29 [11]; [26]): 16.1 µM
- TGI (HT-29 [11]; read-out: TGI): 4.95 µM
- GI50 (HT-29 [11]; read-out: pGI50 (converted)): 2.14 µM
- CC50 (HT-29 [11]; [27]): 16.2 µM
- TGI (HT-29 [11]; read-out: pTGI (converted)): 4.9 µM
- growth at 0.1 µM (MCF7): 89%
- growth at 0.1 µM (786-0): 91%
- growth at 100 µM [12]: -86%
- growth at 100 µM (A549 [13]): -95%
- growth at 0.1 µM [14]: 85%
- growth at 1 µM [15]: 88%
- growth at 0.1 µM (KM12): 99%
- growth at 0.01 µM [16]: 96%
- GI50 ([17]; read-out: GI50): 4.03 µM
- CC50 [17, 26]: 42.7 µM
- TGI ([17]; read-out: TGI): 15.7 µM
- GI50 ([17]; read-out: pGI50 (converted)): 4.07 µM
- CC50 [17, 27]: 42.7 µM
- TGI ([17]; read-out: pTGI (converted)): 15.8 µM
- growth at 0.1 µM (HT-29 [18]): 102%
- growth at 0.1 µM [19]: 93%
- growth at 0.01 µM [20]: 92%
- growth at 1 µM [21]: 90%
- growth at 0.01 µM (EKVX): 92%
- growth at 1 µM [22]: 88%
- growth at 100 µM [23]: -88%
- growth at 0.01 µM (M14): 94%
- growth at 100 µM [24]: -72%
- GI50 (SR [25]; read-out: GI50): 2.6 µM
- CC50 (SR [25]; [26]): > 100 µM
- TGI (SR [25]; read-out: TGI): 41.7 µM
- GI50 (SR [25]; read-out: pGI50 (converted)): 2.63 µM
- CC50 (SR [25]; [27]): > 100 µM
- TGI (SR [25]; read-out: pTGI (converted)): 41.7 µM
